Assay results as given in US10745370B2, “Farnesyl transferase inhibitors and uses thereof” (MACKAY MEMORIAL HOSPITAL, priority 2016, dated 2020).
Where “and” joins values, the source holds several entries; their conditions need not be identical. Equal values may be shown once. Entries after “also recorded” stand apart in the source; their conditions may differ.

Key:
dendritic cells [1] = experiment: Cell marker expression on dendritic cells, flow cytometry; type: cell-based, human; conditions: 10 μM
Experimental: (§1) Mononuclear cells (MNCs) were separated from the peripheral blood of healthy donors obtained with written consent by use of Ficoll-Hypaque density centrifugation, followed by positive selection with magnetic anti-CD14 microbeads.
(§2) The isolated CD14^+ cells were cultivated in Minimum Essential Medium (MEM medium) supplemented with 10% fetal bovine serum (FBS), 100 ng/ml granulocyte-macrophage colony-stimulating factor (GM-CSF, Gentaur), and 50 ng/ml interleukin-4 (IL-4, R&D), and kept in an environment of 37° C. with 5% CO2/95% air.
(§3) To evaluate the effects of the present compound on dendritic cells, the CD14^+ cells were respectively treated with 10 μM of test compound (i.e., Mib-5, Mib-6, Mib-7, Mib-8, Mib-9, and Mib-10) on day 1. Then, on day 3, the cultured medium in each well was replenished by adding half the volume of the cultured medium containing the same treatment as indicated above. Then, on day 6, a cytokine cocktail containing IL-1, IL-6, and tumor necrosis factor-α (TNF-α) was added to induce maturation. On day 7, the differentiated dendritic cells were collected and subjected to further assays, including viability assay, morphology observation, and cell marker staining.
(§4) The expression of various types of cell markers, such as CD14, CD206, and CD80 expressed on the surface of macrophages, and CD1a, CD14, CD83, and HLA-DR expressed on the dendritic cells, were respectively detected by fluorescein isothiocyanate (FITC) and phycoerythrin (PE)-conjugated monoclonal antibodies in FACS caliber flowcytometer. Monoclonal antibodies used in this examples included anti-CD14 (IgG-FITC), anti-CD206 (IgG-FITC), anti-CD80-PE, anti-CD1a-PE, anti-CD83-PE and anti-human leukocyte antigen (HLA)-DR-PE. Results were analyzed by CellQuest software.
(§5) In this example, the effects of the present compounds on dendritic cells were investigated. Briefly, the dendritic cells were respectively treated with 10 μM of Mib-5, Mib-6, Mib-7, Mib-8, or Mib-10. Seven days later, the cells were harvested and subjected to analysis of morphology observation, cell viability, and/or cell marker expression.

macrophages [2] = experiment: Cell marker expression on macrophages (total), flow cytometry; type: cell-based, human
Experimental: as §1, §2, §3
(§6) As to the effects of the present compound on macrophages, the CD14^+ cells were cultivated and treated as indicated above except the addition of cytokine cocktail on day 6. The macrophages were collected on day 6 and subjected to further assays, including viability assay, trypan blue exclusion test, morphology observation, cell marker staining, and phagocytotic activity analysis.
as §4

dendritic cells [3] = experiment: Morphology of dendritic cells by Liu's staining; type: cell-based, human; conditions: 10 μM, seven days, FIG. 8
Experimental: as §1, §2, §3
(§7) Cells were transferred to a glass coverslide and covered with solution A (0.5 g of methylene blue and 1.7 g of Eosin yellow dissolved in 1,000 ml of ethanol). After 45 seconds, solution B (1.3 g of azure, 1.4 g of methylene blue, 23.38 g of Na2HPO4, 6.5 g of KH2PO4, dissolved in 1,000 ml of distilled water) was added in the proportion of 2 parts of B to 1 part of A. Mixed the solutions well by blowing the surface. The slide was left standing for 90 seconds and then washed off the staining solution rapidly by running water. The morphology of stained cells was then examined under microscope.
as §5

M1 macrophages [4] = experiment: Cell marker expression on M1 macrophages, flow cytometry; type: cell-based, human
Experimental: (§8) M1 differentiation of freshly isolated CD14^+ cells was induced by the addition of lipopolysaccharide (LPS), while M2 differentiation of freshly isolated CD14^+ cells was induced by the addition of IL-4. Then, the present compounds (e.g., Mib-5, 6, 7, 8, 9, or 10) were added at the indicated dosages. 6 days later, the population of the differentiated macrophages were then determined by cell viability analysis.
as §4

M1 macrophages [5] = experiment: Differentiation analysis, cell viability of M1 macrophages; type: cell-based, human
Experimental: as §8, with “analysis. The cell viability was measured by cell counting kit-8 (CCK-8, Sigma). The half maximal inhibitory concentrations (IC50) of the test compounds on macrophages or dendritic cells were calculated.” for “analysis.”

dendritic cells [6] = experiment: Trypan blue exclusion analysis of dendritic cells; type: cell-based, human; conditions: 10 μM, seven days, FIG. 7
Experimental: as §1, §2, §3
(§9) The dye exclusion test is used to determine the number of viable cells present in a cell suspension. […] In this test, the cells were first treated with a test compound (i.e., Mib-5, 6, 7, 8, 9 or 10) for a certain period of time (e.g., 72 hours), then the cells were harvested and re-suspended in suitable buffer solution. The cell suspension was then mixed with trypan blue dye and then visually examined to determine whether cells had taken up or excluded the dye. A viable cell will have a clear cytoplasm, whereas a nonviable cell will have a blue cytoplasm. The concentration required to reduce viability by 50% (IC50) after 72 hours was extrapolated from the dose-response curves by different concentrations of the test compound using a second-order polynomial regression model and analyzing with SigmaPlot Software (Systat Software Inc., San Jose, Calif.).
as §5

M2 macrophages [7] = experiment: Differentiation analysis, cell viability of M2 macrophages; type: cell-based, human
Experimental: as §8, with “analysis. The cell viability was measured by cell counting kit-8 (CCK-8, Sigma). The half maximal inhibitory concentrations (IC50) of the test compounds on macrophages or dendritic cells were calculated.” for “analysis.”

macrophages [8] = experiment: Trypan blue exclusion test on macrophages; type: cell-based; conditions: trypan blue analysis, FIG. 2
Experimental: as §1, §2, §3, §6, §9

macrophages [9] = experiment: Morphology of macrophages (photographs, Liu's staining); type: cell-based, human
Experimental: as §1, §2, §3, §6, §7

M2 macrophages [10] = experiment: Cell marker expression on M2 macrophages, flow cytometry; type: cell-based, human
Experimental: as §8, §4

macrophages [11] = experiment: Phagocytosis assay with fluorescent latex beads; type: cell-based, human; conditions: M1 and/or M2 populations, FIG. 6
Experimental: as §6
The phagocytic activity of macrophages was measured by using flow cytometric analysis. The green fluorescent latex beads (carboxylate-modified beads with diameter 2 μm) were suspended in PBS solution and added into macrophage culture for 2 hours with vortexa at 37° C. The macrophages were subjected to flow cytometry for measurement of fluorescent intensity

rat PFTase = biological target: T1, rat PFTase (Rattus norvegicus, UniProt Q02293+Q04631); experiment: Inhibition of farnesyl transferase (fluorescence assay); type: biochemical; conditions: mean ± SD of three independent experiments
T1 construct: purchased Jena Biosciences
Experimental: The assay was carried out in 384-well microplates with a final volume of 20 μl by the method modified from the previous report (Long et al., 2009). Briefly, 10 nM of rat PFTase (Jena Biosciences, Jena, Germany) was incubated with the tested compound or DMSO (1%) for 15 min, and then the mixture was added in a solution (50 mM Tris-HCl, pH 7.5, 5 mM MgCl2, 5 mM DTT, 0.1 mM ZnCl2, 0.2% octyl-β-D-glucopyranoside (Sigma, St. Louis, Mo.), 10 μM PFTase substrate dansyl-Gly-Cys-Val-Leu-Ser-OH, and 10 μM farnesyl pyrophosphate (Sigma, St. Louis, Mo.)) to initiate the reaction. The reaction was incubated at 37° C. for 30 min, and the fluorescence was detected by a M5 plate reader (Molecular Devices, CA, USA) at 340 nm excitation and 505 nm emission.

SMILES: COC1=CC(=O)[C@@]2(c3cc(=O)c4ccc(O)cc4o3)[C@H](CC=C(C)[C@@H]2C[C@]2(C)[C@@H](C(=O)O)CC=C3[C@H]2CCCC3(C)C)C1=O [Mib-10]
- expression of CD1a, differentiation marker of dendritic cells (dendritic cells [1]; FIG. 9): not
- expression of CD83, maturation marker of dendritic cells (dendritic cells [1]; FIG. 10): not affected
- increase of total level of CD80 as compared with the control (macrophages [2]): about 2 folds
- total expressed level of CD14 (macrophages [2]; FIG. 3): not affected
- level of CD206 (macrophages [2]; FIG. 5): increase
- total level of CD80 (macrophages [2]; compared with the control): increased
- dendritic cell morphology compared with control group (dendritic cells [3]): did not cause any significant changes
- CD14: M1 population after treatment (M1 macrophages [4]; Table 5): remained relatively unchanged
- CD206 expression on M1 macrophages (M1 macrophages [4]; control 14.27%): 15.17%
- CD80 expression on M1 macrophages (M1 macrophages [4]; control 71.34%): 84.46%
- CD14 expression on M1 macrophages (M1 macrophages [4]; control 99.83%): 99.10%
- Cell viability of M1 macrophages (M1 macrophages [5]; LPS-induced M1 differentiation, 6 days, control 100%): 82.5%
- change in M1 population of macrophages compared with control (M1 macrophages [5]; Table 4): decrease
- levels of viable dendritic cells (dendritic cells [6]): remained relatively unchanged
- Cell viability of M2 macrophages (M2 macrophages [7]; IL-4-induced M2 differentiation, 6 days, control 100%): 145.5%
- increase of M2 population (M2 macrophages [7]; compared with control, Table 4): about 40%
- cell viability / cytotoxicity toward macrophages (macrophages [8]): did not adversely affect cell viability; also recorded: no significant cytotoxicity
- cells exhibiting adhesive morphology (macrophages [9]; 10 μM, FIG. 1 panel A): about 20%
- morphology of cells by Liu's staining compared with control cells (macrophages [9]; FIG. 1 panel C): not significantly affected
- CD14: M2 population after treatment (M2 macrophages [10]; Table 5): significant decrease
- CD80: change in M2 population (M2 macrophages [10]; Table 6): increase
- CD80 expression on M2 macrophages (M2 macrophages [10]; control 47.64%): 59.89%
- CD14 expression on M2 macrophages (M2 macrophages [10]; control 55.66%): 57.93%
- CD206 expression on M2 macrophages (M2 macrophages [10]; control 74.49%): 68.80%
- phagocytic activity compared with control (macrophages [11]): reduced
- IC50 (rat PFTase): ~28 µM and 27.9 µM
